Each structure is given as a SMILES string.

We go through 61 compounds from EPA's aquatic toxicity sets.

The subject of this series is Pimephales promelas. In words: 96 h LC50 (-log10 mol/L); higher = more toxic.
In the case of `CCC(C)c1cccc(OC(=O)N(C)Sc2ccccc2)c1` (stereo unspecified), the “96 h LC50 (-log10 mol/L)” value worked out at 6.91.

As to `CC=CC=CC`, the “96 h LC50 (-log10 mol/L)” value came out at 3.61.

`CCc1cccc(C)c1N(C(=O)CCl)C(C)COC` (stereo unspecified): the “96 h LC50 (-log10 mol/L)” value was found to be 4.54.

Take `Cc1cc(C)c([N+](=O)[O-])cc1[N+](=O)[O-]`: the “96 h LC50 (-log10 mol/L)” value came out at 4.39.

As for `c1ccc(-c2ccc(-c3ccccc3)o2)cc1`, the “96 h LC50 (-log10 mol/L)” value is 6.64.

As to `ClC1C(Cl)C(Cl)C(Cl)C(Cl)C1Cl` (stereo unspecified), the “96 h LC50 (-log10 mol/L)” value was determined as 6.61.

On to `C#CCCO`, for which the “96 h LC50 (-log10 mol/L)” value stood at 3.29.

Turning to `CC(C)(O)C(Cl)(Cl)Cl`, the “96 h LC50 (-log10 mol/L)” value is 3.12.

`CC(C)(C)SC(C)(C)C`: the “96 h LC50 (-log10 mol/L)” value amounted to 3.7.

With `C#CC(O)(c1ccccc1)c1ccccc1`, the “96 h LC50 (-log10 mol/L)” value came to 4.27.

`OCc1ccoc1`: the “96 h LC50 (-log10 mol/L)” value was 2.29.

For `CC(=O)Br`, the “96 h LC50 (-log10 mol/L)” value was 3.48.

As for `CC(=O)c1ccc(Cl)c([N+](=O)[O-])c1`, the “96 h LC50 (-log10 mol/L)” value was 4.56.

`Clc1cc(Cl)cc(C2(CC(Cl)(Cl)Cl)CO2)c1` (stereo unspecified): the “96 h LC50 (-log10 mol/L)” value was 5.38.

As to `O=Cc1ccco1`, the “96 h LC50 (-log10 mol/L)” value turned out to be 3.57.

As to `ClCc1ccccc1`, the “96 h LC50 (-log10 mol/L)” value came to 4.4.

Regarding `CC(C)(C)CN`, the “96 h LC50 (-log10 mol/L)” value was 2.26.

Regarding `CC(=O)Cl`, the “96 h LC50 (-log10 mol/L)” value came to 3.27.

Turning to `Oc1cc(Cl)c(Cl)cc1O`, the “96 h LC50 (-log10 mol/L)” value was 5.3.

For the compound `CC1CNCCN1` (stereo unspecified), the “96 h LC50 (-log10 mol/L)” value was 1.65.

As for `CC(C)(C)SSC(C)(C)C`, the “96 h LC50 (-log10 mol/L)” value stood at 5.12.

Regarding `CCCCCCC(C)N` (stereo unspecified), the “96 h LC50 (-log10 mol/L)” value is 4.4.

In the case of `CNC(=O)Oc1ccc(N(C)C)c(C)c1`, the “96 h LC50 (-log10 mol/L)” value stood at 5.03.

For `COCOC`, the “96 h LC50 (-log10 mol/L)” value is 1.04.

For the compound `O=C(Nc1cccc(Cl)c1)c1cccc([N+](=O)[O-])c1O`, the “96 h LC50 (-log10 mol/L)” value amounted to 6.08.

With `CCCCOC(=O)c1ccc(C(=O)OCCCC)cc1`, the “96 h LC50 (-log10 mol/L)” value amounted to 5.67.

In the case of `CC(=O)/C=C/C1=C(C)CCCC1(C)C`, the “96 h LC50 (-log10 mol/L)” value turned out to be 4.58.

On to `CCN(CCO)c1cccc(C)c1`, for which the “96 h LC50 (-log10 mol/L)” value is 3.53.

As to `Oc1ccccc1Cl`, the “96 h LC50 (-log10 mol/L)” value amounted to 4.02.

Take `CN(C)N=O`: the “96 h LC50 (-log10 mol/L)” value came to 1.9.

Regarding `c1cc[n+]2c(c1)-c1cccc[n+]1CC2`, the “96 h LC50 (-log10 mol/L)” value came to 4.12.

As for `Cc1ccc(N(C)C)cc1`, the “96 h LC50 (-log10 mol/L)” value worked out at 3.42.

For `CC1(C)NC(=O)NC1=O`, the “96 h LC50 (-log10 mol/L)” value came to 0.89.

Regarding `COc1ccc(O)cc1`, the “96 h LC50 (-log10 mol/L)” value was determined as 3.11.

As for `CC12CCC(C(Br)C1=O)C2(C)C` (stereo unspecified), the “96 h LC50 (-log10 mol/L)” value was determined as 3.53.

Consider `c1ccc2c(c1)CCC2`, for which the “96 h LC50 (-log10 mol/L)” value is 3.93.

For `O=Cc1cc([N+](=O)[O-])ccc1Cl`, the “96 h LC50 (-log10 mol/L)” value amounted to 4.67.

`ON=C1CCCCC1`: the “96 h LC50 (-log10 mol/L)” value is 2.74.

On to `CCOP(=S)(OCC)SC1OCCOC1SP(=S)(OCC)OCC` (stereo unspecified), for which the “96 h LC50 (-log10 mol/L)” value came to 4.66.

`CCOC(=O)CCC(=O)OCC`: the “96 h LC50 (-log10 mol/L)” value amounted to 3.1.

On to `CCN(CC)c1c([N+](=O)[O-])cc(C(F)(F)F)c(N)c1[N+](=O)[O-]`, for which the “96 h LC50 (-log10 mol/L)” value is 5.39.

`COC(=O)C1C(C(=O)OC)C2(Cl)C(Cl)=C(Cl)C1(Cl)C2(Cl)Cl` (stereo unspecified): the “96 h LC50 (-log10 mol/L)” value is 5.38.

With `Oc1c(Cl)cc(Cl)c(Cl)c1Cc1c(O)c(Cl)cc(Cl)c1Cl`, the “96 h LC50 (-log10 mol/L)” value is 7.29.

Regarding `COc1ccccc1C(N)=O`, the “96 h LC50 (-log10 mol/L)” value was 3.1.

Take `OCCOCCO`: the “96 h LC50 (-log10 mol/L)” value turned out to be 0.15.

As for `COC(=O)c1ccc(O)cc1O`, the “96 h LC50 (-log10 mol/L)” value amounted to 3.6.

In the case of `CCNc1cccc(C)c1`, the “96 h LC50 (-log10 mol/L)” value was found to be 3.44.

For `BrC(Br)c1ccccc1C(Br)Br`, the “96 h LC50 (-log10 mol/L)” value turned out to be 5.99.

As to `C=C(Cl)Cl`, the “96 h LC50 (-log10 mol/L)” value stood at 2.86.

Regarding `CC1(C)CCC(C)(C)O1`, the “96 h LC50 (-log10 mol/L)” value is 2.88.

`COc1ccc(OC)cc1`: the “96 h LC50 (-log10 mol/L)” value amounted to 3.07.

Take `CCN1C(=O)CC(=O)N(CC)C1=S`: the “96 h LC50 (-log10 mol/L)” value amounted to 1.65.

`O=S(Cc1ccccc1)Cc1ccccc1`: the “96 h LC50 (-log10 mol/L)” value turned out to be 3.46.

With `O=[N+]([O-])c1ccc(O)cc1C(F)(F)F`, the “96 h LC50 (-log10 mol/L)” value was 4.51.

Regarding `c1ccc(Nc2ccccc2)cc1`, the “96 h LC50 (-log10 mol/L)” value worked out at 4.65.

For the compound `Nc1ccc(Br)cn1`, the “96 h LC50 (-log10 mol/L)” value amounted to 2.99.

Take `CC1CNCC(C)O1` (stereo unspecified): the “96 h LC50 (-log10 mol/L)” value turned out to be 2.47.

For `COc1cc(C=O)cc(Br)c1O`, the “96 h LC50 (-log10 mol/L)” value came out at 3.59.

As for `CC(C)Oc1cccc(NC(=O)c2ccccc2C(F)(F)F)c1`, the “96 h LC50 (-log10 mol/L)” value amounted to 4.83.

Take `CCCCO`: the “96 h LC50 (-log10 mol/L)” value was determined as 1.59.

Turning to `CNC(=O)Oc1cccc2c1OC(C)(C)C2`, the “96 h LC50 (-log10 mol/L)” value stood at 5.4.
